Marks after values point to notes of the source that are not given here.
Legend:
[1] = test system: resected liver; assay: Liver weight increase in the rat after 2/3 partial hepatectomy or sham laparotomy; format: in vivo, Male Sprague Dawley rats
Method: Male Sprague Dawley rats were purchased from Central Lab. Animal Inc., Korea. Test animals were adapted to an animal facility where temperature was maintained at 22±2° C., humidity at 55±5%, and artificial illumination was provided for 12 hours a day, at least for a week before being used in the experiment. The rats weighed 230-260 g at the time when partial hepatectomy was performed. Filtered tap water and solid regular rat chow were provided freely. For the animal group that was supposed to be treated with betaine, betaine purchased from Sigma, USA, was dissolved in filtered tap water at the concentration of 1% and provided to the group as drinking water. Betaine was administered after partial hepatectomy was conducted. In some experiments, betaine containing drinking water was provided to the animal group from 2 weeks before partial hepatectomy to increase the effect of betaine. Partial hepatectomy was performed according to the method originally introduced by Higgins and Anderson (Arch Path, 12; 186, 1931). The rat was anesthetized lightly with ether, and then the middle line of abdomen was incised approximately 3 cm. First, the skin was cut and then abdominal muscle was incised carefully not to damage internal organs. The incised upper part was lifted up by using a pincette to cut the connective tissues connected with diaphragm supporting liver tissue using scissors. Light pressure was applied to the surrounding area of the incision line to expose median lobe and left lateral lobe taking about 70 volume % of the total hepatic lobes. Connective tissues of each hepatic lobe were carefully removed and tied with suture to close the blood vessel, followed by elimination of the exposed hepatic lobe. Muscles and skin of the incised area were stitched up with suture. The incised area was sterilized with 70% ethyl alcohol to prevent infection. For the control group, abdominal incision was simply performed and then stitched up (Sham). Male rats were randomly divided into 4 groups of 4 rats each. Group 1, the control group, had laparotomy alone without damaging internal organs and then the opening was sealed (Sham group). Group 2 was treated with betaine after laparotomy (Sham+Betaine group). Group 3 had two-thirds (⅔) partial hepatectomy (PH group), and Group 4 was treated with betaine after ⅔ partial hepatectomy (PH+Betaine group). For the administration of betaine to the groups that had laparotomy only or partial hepatectomy, 1% betaine solution was provided as drinking water. For other groups, filtered tap water was provided as drinking water. In Table 1, the values on day 0 indicate the relative liver weight (liver/weight percentage) in the normal rats not having the surgery. Each group was composed of 4 rats except that 8 rats were used for the calculation for day 0 values. Value is mean±standard deviation. * Statistically significant difference between the group treated with betaine and the group without betaine treatment (Student's t-test, P<0.05). […] SH: Sham, PH: Partial hepatectomy. The number in parenthesis indicates % to the SH group.

[2] = Serum hepatotoxic parameters (AST, ALT) in rats after hepatectomy; format: in vivo, Male Sprague Dawley rats; settings: for ALT / AST: serum, end of experiment
Method: (§1) Male Sprague Dawley rats were purchased from Central Lab. Animal Inc., Korea. Test animals were adapted to an animal facility where temperature was maintained at 22±2° C., humidity at 55±5%, and artificial illumination was provided for 12 hours a day, at least for a week before being used in the experiment. The rats weighed 230-260 g at the time when partial hepatectomy was performed. Filtered tap water and solid regular rat chow were provided freely. For the animal group that was supposed to be treated with betaine, betaine purchased from Sigma, USA, was dissolved in filtered tap water at the concentration of 1% and provided to the group as drinking water. Betaine was administered after partial hepatectomy was conducted. In some experiments, betaine containing drinking water was provided to the animal group from 2 weeks before partial hepatectomy to increase the effect of betaine.
(§2) Partial hepatectomy was performed according to the method originally introduced by Higgins and Anderson (Arch Path, 12; 186, 1931). The rat was anesthetized lightly with ether, and then the middle line of abdomen was incised approximately 3 cm. First, the skin was cut and then abdominal muscle was incised carefully not to damage internal organs. The incised upper part was lifted up by using a pincette to cut the connective tissues connected with diaphragm supporting liver tissue using scissors. Light pressure was applied to the surrounding area of the incision line to expose median lobe and left lateral lobe taking about 70 volume % of the total hepatic lobes. Connective tissues of each hepatic lobe were carefully removed and tied with suture to close the blood vessel, followed by elimination of the exposed hepatic lobe. Muscles and skin of the incised area were stitched up with suture. The incised area was sterilized with 70% ethyl alcohol to prevent infection. For the control group, abdominal incision was simply performed and then stitched up (Sham).
Alanine aminotransferase (ALT) activity and aspartate aminotransferase (AST) activity were measured by the method of Reitman and Frankel (Amer J Clin Pathol 28; 56, 1957) using spectrophotometer. ALT, AST substrate solutions and an aliquot of serum were added to a test tube, followed by incubation at 37° C. Upon completion of the reaction, the color developing agent and 0.4 N NaOH were added thereto, followed by measurement of absorptivities at 520 nm. The activity of each enzyme was calculated based on the standard calibration curve generated by using pyruvate as a substrate.
Male rats were randomly divided into 4 groups of 4 rats each. Group 1, the control group, had laparotomy alone without damaging internal organs and then the opening was sealed (Sham group). Group 2 was treated with betaine after laparotomy (Sham+Betaine group). Group 3 had two-thirds (⅔) partial hepatectomy (PH group), and Group 4 was treated with betaine after ⅔ partial hepatectomy (PH+Betaine group). For the administration of betaine to the groups that had laparotomy only or partial hepatectomy, 1% betaine solution was provided as drinking water. For other groups, filtered tap water was provided as drinking water.
At the end of the experiment, hepatotoxic parameters in serum were measured.
In Table 2, each group was composed of 4 rats. Value is mean±standard deviation. Statistically significant difference was not shown between different groups (Oneway ANOVA followed by Neuman Keul Multiple range test, P>0.05).

[3] = test system: PCNA (proliferating cell nuclear antigen); assay: PCNA expression in liver after partial hepatectomy (Western blotting); format: in vivo, rat; settings: for PCNA expression, increase compared with tap water group: 1% betaine from 2 weeks before hepatectomy; for PCNA expression compared with tap water group: 1% betaine in drinking water after hepatectomy
Method: as §1, §2
(§3) Cytosolic fraction was prepared from the excised liver using the standard method. The protein of cytosol was separated by SDS-PAGE, followed by electroblotting, and then transferred to nitrocellulose membrane. The membrane was treated with PBS-T buffer containing 5% nonfat milk at 4° C. for overnight. The nitrocellulose membrane was reacted with the primary antibody diluted with 5% bovine serum albumin. The primary antibodies used herein were mouse monoclonal anti-cyclin D1 serum (Santa Cruz Biotechnology, CA, U.S.A.) and rabbit polyclonal anti-human PCNA (Santa Cruz Biotechnology, CA, U.S.A.). After washing twice with PBS-T, the membrane was treated with the secondary antibody horseradish peroxidase-conjugated goat anti-rabbit IgG (Pierce Biotechnology, Rockford, Ill., U.S.A.). […]

[4] = test system: cyclin D1; assay: Cyclin D1 expression in liver after partial hepatectomy (Western blotting); format: in vivo, rat
Method: as §1, §2, §3

[5] = 2/3 partial hepatectomy + 1% betaine in drinking water after surgery, day 7
[6] = Sham + 1% betaine in drinking water
[7] = partial hepatectomy + 1% betaine in drinking water

C[N+](C)(C)CC(=O)[O-] [Betaine, trimethylglycine]
relative liver weight (liver/weight percentage) ([1]; 2/3 partial hepatectomy + 1% betaine in drinking water after surgery, day 1): 1.47 ± 0.05%
relative liver weight (liver/weight percentage) ([1]; 2/3 partial hepatectomy + 1% betaine in drinking water after surgery, day 2): 1.98 ± 0.05* %
relative liver weight (liver/weight percentage) [1, 5]: 3.17 ± 0.06*, a %
relative liver weight, % to the SH group [1, 5]: (94%)
relative liver weight, % to the SH group ([1]; 2/3 partial hepatectomy + 1% betaine in drinking water after surgery, day 7, listed as betaine): 94%
relative liver weight (liver/weight percentage) ([1]; Sham (laparotomy only) + 1% betaine in drinking water, day 7): 3.30 ± 0.10a %
relative liver weight (liver/weight percentage) ([1]; Sham (laparotomy only) + 1% betaine in drinking water, day 7, listed as betaine): did not affect the relative liver weight
relative liver weight, % to the SH group ([1]; Sham + 1% betaine in drinking water, day 7): (98%)
effect on serum AST and ALT activities ([2]; 1% betaine in drinking water, sham or hepatectomized rats): did not affect serum AST and ALT activities
ALT [2, 6]: 22 ± 2 units/ml
AST [2, 6]: 83 ± 3 units/ml
ALT [2, 7]: 27 ± 2 units/ml
AST [2, 7]: 78 ± 11 units/ml
PCNA expression, increase compared with tap water group ([3]; 24 hours after hepatectomy (FIG. 1b)): 190%
PCNA expression, increase compared with tap water group ([3]; 48 hours after hepatectomy (FIG. 1b)): 150%
PCNA expression compared with tap water group ([3]; 24 hours (FIG. 1a)): significantly increased
PCNA expression compared with tap water group ([3]; 48 hours (FIG. 1a)): significantly increased
cyclin D1 expression, higher than tap water group ([4]; betaine from 2 weeks before hepatectomy, 12th hour after hepatectomy (FIG. 2)): 50%
cyclin D1 expression compared with tap water group ([4]; betaine from 2 weeks before hepatectomy, 24 hours after hepatectomy (FIG. 2)): remained elevated
cyclin D1 expression compared with tap water group ([4]; betaine from 2 weeks before hepatectomy, 48 hours after hepatectomy (FIG. 2)): difference between the two groups disappeared
cyclin D1 expression compared with tap water group ([4]; normal rats without hepatectomy, betaine in drinking water, 0 hour (FIG. 2)): no significant difference

— patent US20140080907A1, “LIVER REGENERATION ACCELERATOR COMPRISING BETAINE” (SNU R&DB FOUNDATION, priority 2009, published 2014)
